Reference: article PMC3356383, “Efficacious Intermittent Dosing of a Novel JAK2 Inhibitor in Mouse Models of Polycythemia Vera” (PLoS ONE, 2012)
Marks after values point to notes of the source that are not given here.

Experiments:
[1] = tested on: lung epithelial cancer cell lines, including H2122 cells; experiment: Cell proliferation of several lung epithelial cancer cell lines; type: cell-based; settings: on average
Experimental: Cell proliferation was measured by ViaLight (Lonza Group Ltd) assay as follows. Cells (1000–2000) were seeded into 384-well plates and incubated 16 hours @ 37°C, 5% CO2. […] Cells were lysed and ATP detected as per the manufacturer protocol.

[2] = tested on: peripheral blood cell populations; experiment: Cell populations in peripheral blood of normal mice; type: in vivo, C57BL/6 mice; settings: 54 mpk
Description: JAK2 and its family members JAK1 and JAK3 are known to signal downstream of cytokines that play essential roles in the development of lymphoid cell populations. To examine more thoroughly the effects of JAK2 inhibition on lymphoid cells, we analyzed wild-type (C57BL/6) mice treated with 54 mpk MRLB-11055 for 3 days, 6 days or up to 5 cycles of 3 days (“on”) followed by a 4 day holiday (“off”).
Supplementary file pone.0037207.s005.doc: Table S3 Effect of MRLB-11055 on Cell Populations in Peripheral Blood of Normal Mice. Cell counts measured by Advia. Cycles refer to 3 days of treatment followed by a 4 day holiday. *p<0.01 and **p<0.001 in Student T test when comparing vehicle with treatment. HCT, hematocrit; RBC, red blood cells; HGB, hemoglobin; WBC, white blood cells. (DOC) Click here for additional data file.

[3] = target: T1, JAK1 (JH1) (Homo sapiens, UniProt P23458); experiment: JAK1 enzyme assay, HTRF detection; type: biochemical
T1 construct: JAK1 (JH1)
T1 sequence (P23458 875-1153 limits assumed, species assumed): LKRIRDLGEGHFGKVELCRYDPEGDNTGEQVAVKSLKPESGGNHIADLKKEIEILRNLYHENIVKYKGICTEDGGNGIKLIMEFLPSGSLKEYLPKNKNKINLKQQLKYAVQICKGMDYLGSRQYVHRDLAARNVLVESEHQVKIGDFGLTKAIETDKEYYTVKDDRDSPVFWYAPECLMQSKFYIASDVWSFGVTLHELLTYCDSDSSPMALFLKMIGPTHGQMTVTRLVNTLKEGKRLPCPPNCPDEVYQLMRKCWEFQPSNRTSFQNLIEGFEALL
Experimental: JAK1, JAK2, JAK3, and TYK2 kinase activity assays were performed as described previously using HTRF detection technology and the peptide substrate amino hexanoyl biotin-EQEDEPEGDYFEWLE-NH2. Each reaction was incubated between 60 and 80 min at room temperature. Final conditions were as follows: JAK1, 400 pM enzyme, Hepes pH 7.5, 10 mM MgCl2, 0.01% Brij-35, 1 mM EGTA, 0.1 mg/ml BSA), 2 mM DTT, 2 µM peptide substrate, 25 µM MgATP, 5% DMSO and the desired concentration of subject compound; JAK2, 25 pM enzyme (JH1, JH1–JH2^wt, JH1–JH2^V617F domains), 2 µM peptide substrate, 15 µM MgATP, 5 mM MgCl2, 100 mM NaCl, 2 mM DTT, 0.1 mg/ml BSA, 50 mM Tris (pH 7.4), 5% DMSO and the desired concentration of subject compound; JAK3, 250 pM enzyme, 50 mM Hepes pH 7.5, 10 mM MgCl2, 0.01% Brij-35, 1 mM EGTA, 0.1 mg/ml BSA), 2 mM DTT, 2.0 µM peptide substrate, 25 µM MgATP, 5% DMSO, and the desired concentration of subject compound; TYK2, 125 pM enzyme, 50 mM Hepes pH 7.5, 10 mM MgCl2, 0.01% Brij-35, 1 mM EGTA, 0.1 mg/ml BSA, 2 mM DTT, 2.0 µM peptide substrate, 15 µM MgATP, 5% DMSO and the desired concentration of subject compound.

[4] = tested on: ACK1; experiment: Kinase profiling (Millipore); type: biochemical; settings: IC50s measured at ATP Km, fold increase relative to JAK2
Experimental: (§1) Kinase profiling was conducted by Millipore (Billerica, MA).
(§2) Supplementary file pone.0037207.s003.doc: Table S1 Recombinant Kinase Selectivity Profile of MRLB-11055. IC50s measured at ATP Km, and fold increase relative to JAK2 is reported. (DOC) Click here for additional data file.

[5] = tested on: Hck; experiment: Kinase profiling (Millipore); type: biochemical; settings: IC50s measured at ATP Km, fold increase relative to JAK2
Experimental: as §1, §2

[6] = tested on: Ret; experiment: Kinase profiling (Millipore); type: biochemical; settings: IC50s measured at ATP Km, fold increase relative to JAK2
Experimental: as §1, §2

[7] = tested on: TrkB; experiment: Kinase profiling (Millipore); type: biochemical; settings: IC50s measured at ATP Km, fold increase relative to JAK2
Experimental: as §1, §2

[8] = tested on: CaMKIIδ; experiment: Kinase profiling (Millipore); type: biochemical; settings: IC50s measured at ATP Km, fold increase relative to JAK2
Experimental: as §1, §2

[9] = tested on: Fms; experiment: Kinase profiling (Millipore); type: biochemical; settings: IC50s measured at ATP Km, fold increase relative to JAK2
Experimental: as §1, §2

[10] = tested on: CaMKIIγ; experiment: Kinase profiling (Millipore); type: biochemical; settings: IC50s measured at ATP Km, fold increase relative to JAK2
Experimental: as §1, §2

[11] = tested on: Lck; experiment: Kinase profiling (Millipore); type: biochemical; settings: IC50s measured at ATP Km, fold increase relative to JAK2
Experimental: as §1, §2

[12] = tested on: cSRC; experiment: Kinase profiling (Millipore); type: biochemical; settings: IC50s measured at ATP Km, fold increase relative to JAK2
Experimental: as §1, §2

[13] = tested on: PTK5; experiment: Kinase profiling (Millipore); type: biochemical; settings: IC50s measured at ATP Km, fold increase relative to JAK2
Experimental: as §1, §2

[14] = tested on: Yes; experiment: Kinase profiling (Millipore); type: biochemical; settings: IC50s measured at ATP Km, fold increase relative to JAK2
Experimental: as §1, §2

[15] = tested on: PRK2; experiment: Kinase profiling (Millipore); type: biochemical; settings: IC50s measured at ATP Km, fold increase relative to JAK2
Experimental: as §1, §2

[16] = 2 cycles (3 days treatment, 4 day holiday)
[17] = 5 cycles (3 days treatment, 4 day holiday)

## NC(=O)c1cnc(N[C@H](C2CC2)C(F)(F)F)c2c1[nH]c1cc(-c3cnc(N)nc3)ccc12 [MRLB-11055]
[1]
  Proliferation IC50 of lung epithelial cancer cell lines, fold higher than for JAK2-dependent cell lines: 50–70 fold
[2]; [16]
  Baso-phils: 0.03 ± 0.01 * x 10^3/µl
  Eosino-phils: 0.14 ± 0.06 x 10^3/µl
  HCT: 51.6 ± 1.5* %
  HGB: 13.4 ± 0.4** g/dL
  Lympho-cytes: 6.2 ± 1.6 x 10^3/µl
  Mono-cytes: 0.04 ± 0.01 x 10^3/µl
  Neutro-phils: 0.78 ± 0.18 x 10^3/µl
  Platelets: 2244 ± 85** x 10^3/µl
  Platelets MPV: 6.9 ± 0.2** fL
  RBC: 9.65 ± 0.27* x 10^6/µl
  Retic: 803 ± 18** x 10^9/L
  WBC: 7.4 ± 1.7 x 10^3/µl
[2]; [17]
  Baso-phils: 0.04 ± 0.01 x 10^3/µl
  Eosino-phils: 0.06 ± 0.03 * x 10^3/µl
  HCT: 50.3 ± 0.6** %
  HGB: 13.0 ± 0.1** g/dL
  Lympho-cytes: 4.7 ± 1.5** x 10^3/µl
  Mono-cytes: 0.05 ± 0.01 x 10^3/µl
  Neutro-phils: 0.86 ± 0.34 x 10^3/µl
  Platelets: 2376 ± 171 ** x 10^3/µl
  Platelets MPV: 6.8 ± 0.1** fL
  RBC: 9.41 ± 0.13** x 10^6/µl
  Retic: 911 ± 64** x 10^9/L
  WBC: 5.9 ± 1.9* x 10^3/µl
[2]; 3 days
  Baso-phils: 0.03 ± 0.03 x 10^3/µl
  Eosino-phils: 0.26 ± 0.09 x 10^3/µl
  HCT: 50.4 ± 0.8** %
  HGB: 13.7 ± 0.2** g/dL
  Lympho-cytes: 4.2 ± 0.9** x 10^3/µl
  Mono-cytes: 0.05 ± 0.02 x 10^3/µl
  Neutro-phils: 0.61 ± 0.07 x 10^3/µl
  Platelets: 1611 ± 85** x 10^3/µl
  Platelets MPV: 6.6 ± 0.4 fL
  RBC: 9.29 ± 0.04** x 10^6/µl
  Retic: 43 ± 6** x 10^9/L
  WBC: 5.3 ± 1.0** x 10^3/µl
[2]; 6 days
  Baso-phils: 0.02 ± 0.01** x 10^3/µl
  Eosino-phils: 0.19 ± 0.06 x 10^3/µl
  HCT: 48.7 ± 2.5** %
  HGB: 12.9 ± 0.5** g/dL
  Lympho-cytes: 3.5 ± 0.4** x 10^3/µl
  Mono-cytes: 0.05 ± 0.02 x 10^3/µl
  Neutro-phils: 0.60 ± 0.16 x 10^3/µl
  Platelets: 2534 ± 88** x 10^3/µl
  Platelets MPV: 6.1 ± 0.2** fL
  RBC: 8.80 ± 0.39** x 10^6/µl
  Retic: 162 ± 24** x 10^9/L
  WBC: 4.6 ± 0.6** x 10^3/µl
[3]; HTRF, mean, n = 3, read-out: IC50, cell-free JAK1 (JH1)
  IC50: 1.5 nM
[3]; cell-free assays
  Selectivity for JAK2 over JAK1: 20 fold
[4]
  Fold-Shift /JAK2, ACK1: 2 fold
[5]
  Fold-Shift /JAK2, Hck: 3 fold
[6]
  Fold-Shift /JAK2, Ret: 3 fold
[7]
  Fold-Shift /JAK2, TrkB: 8 fold
[8]
  Fold-Shift /JAK2, CaMKIIδ: 10 fold
[9]
  Fold-Shift /JAK2, Fms: 2 fold
[10]
  Fold-Shift /JAK2, CaMKIIγ: 11 fold
[11]
  Fold-Shift /JAK2, Lck: 5 fold
[12]
  Fold-Shift /JAK2, cSRC: 1 fold
[13]
  Fold-Shift /JAK2, PTK5: 8 fold
[14]
  Fold-Shift /JAK2, Yes: 7 fold
[15]
  Fold-Shift /JAK2, PRK2: 13 fold
